The values that follow come from patent US9376420B2 (YUHAN CORPORATION, priority 2012, dated 2016).

For this test, the target named is T1, human LXRβ (Homo sapiens, UniProt P55055).
T1 construct: expressed in transfected cells; host or cells: HEK293 cells (ATCC CRL-1573), transient transfection with pFA-hLXRβ/GAL4 and pUAS
T1 sequence (P55055 222-460 limits assumed): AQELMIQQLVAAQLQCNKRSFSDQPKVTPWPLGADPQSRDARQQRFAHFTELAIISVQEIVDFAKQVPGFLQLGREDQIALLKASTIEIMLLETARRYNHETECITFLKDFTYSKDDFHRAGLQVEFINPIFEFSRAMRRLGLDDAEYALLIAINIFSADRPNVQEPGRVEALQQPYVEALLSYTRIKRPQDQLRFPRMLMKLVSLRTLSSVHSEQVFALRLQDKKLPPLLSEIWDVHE
Briefly: Assay for Transcriptional Activity of LXRβ (GAL4-hLXRβ LBD luciferase reporter, transient transfection). Format: cell-based. The settings on record: HEK293 cells transfected with pFA-hLXRβ/GAL4 and pUAS, 24 hours; for Emax: fold value in comparison with the control (DMSO-treated group); for EC50: increase of transcriptional activity of LXRβ, average of three independent tests. In outline:
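HEK293 cells transiently co-transfected with GAL4-hLXRβ LBD and 5×GAL4-UAS luciferase reporter, treated 24 h at 37 °C with compounds over 9 points (0.01–50 μM, half-log). Luminescence read after lysis; EC50 from four-parameter fit, mean of three independent tests, with a known LXR agonist as positive control.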
For orientation: In a reporter assay the amount or activity of a reporter protein is the signal.

Compound `CS(=O)(=O)c1ccc(-c2cccc(C3CC(C(F)(F)C(F)(F)F)=NN3c3ccccc3Cl)c2)cc1` (stereo not shown) [Example 106, 1-(2-chloro-phenyl)-5-(4′-methylsulfonyl-biphenyl-3-yl)-3-pentafluoroethyl-4,5-dihydro-1H-pyrazole] gave an Emax of 85 fold and an EC50 of 1160 nM.
Regarding `CS(=O)(=O)c1ccc(-c2ccnc(C3CC(C(F)(F)C(F)(F)F)=NN3c3ccc(F)cc3F)c2)cc1` (stereo not shown) [Example 174, 1-(2,4-difluoro-phenyl)-5-[4-(4-methanesulfonyl-phenyl)-pyridin-2-yl]-3-pentafluoroethyl-4,5-dihydro-1H-pyrazole], the Emax is on record as 119 fold and the EC50 came out at 543 nM.
The like results for `CN(CCO)S(=O)(=O)c1cccc(-c2cccc(N3N=C(C(F)(F)C(F)(F)F)CC3c3ccc(F)cc3F)c2)c1` (stereo not shown) [Example 210, 5-(2,4-difluoro-phenyl)-1-{3′-[(2-hydroxy-ethyl)-methyl-sulfamoyl]-biphenyl-3-yl}-3-pentafluoroethyl-4,5-dihydro-1H-pyrazole] were, in that order, 25 fold and 4470 nM.
Consider `O=S(=O)(N1CCCC1)N1CCN(c2ccc(C3CC(C(O)(C(F)(F)F)C(F)(F)F)=NN3c3ccccc3Cl)cc2)CC1` (stereo not shown) [Example 319, 1-(2-chloro-phenyl)-5-{4-[4-(pyrrolidine-1-sulfonyl)-piperazin-1-yl]-phenyl}-3-[di-(trifluoromethyl)-hydroxy-methyl]-4,5-dihydro-1H-pyrazole], for which the Emax is recorded as 39 fold and the 50% effective concentration (EC50) worked out at 1830 nM.
In turn, `CC(C)S(=O)(=O)N1CCN(c2ccc(C3CC(C(O)(C(F)(F)F)C(F)(F)F)=NN3c3ccccc3Cl)cc2)CC1` (stereo not shown) [Example 314, 1-(2-chloro-phenyl)-5-[4-(4-isopropylsulfonyl-piperazin-1-yl)-phenyl]-3-[di-(trifluoromethyl)-hydroxy-methyl]-4,5-dihydro-1H-pyrazole] yielded an Emax of 59 fold and an EC50 of 883 nM.
The like results for `COc1ccc(-c2ccc(C3CC(C(O)(C(F)(F)F)C(F)(F)F)=NN3c3ccccc3Cl)cc2)c(Cl)c1` (stereo not shown) [Example 255, 5-(2′-chloro-4′-methoxy-biphenyl-4-yl)-1-(2-chloro-phenyl)-3-[di-(trifluoromethyl)-hydroxy-methyl]-4,5-dihydro-1H-pyrazole] were, in that order, 58 fold and 1080 nM.
Regarding `Fc1ccc(N2N=C(C(F)(F)C(F)(F)F)CC2c2cccc(-c3ccc(F)nc3)c2)c(F)c1` (stereo not shown) [Example 55, 1-(2,4-difluoro-phenyl)-5-[3-(6-fluoro-pyridin-3-yl)-phenyl]-3-pentafluoroethyl-4,5-dihydro-1H-pyrazole], the Emax stood at 73 fold and the 50% effective concentration (EC50) is 4900 nM.
The like results for `CC(C)(C)OC(=O)N1CCN(c2ccc(C3CC(C(O)(C(F)(F)F)C(F)(F)F)=NN3c3ccc(F)cc3F)cc2)CC1` (stereo not shown) [Example 404, 1-(2,4-difluoro-phenyl)-5-[4-(4-BOC-piperazin-1-yl)-phenyl]-3-[di-(trifluoromethyl)-hydroxy-methyl]-4,5-dihydro-1H-pyrazole] were, in that order, 15 fold and 5270 nM.
The like results for `OC(C1=NN(c2ccccc2Cl)C(c2ccc(-c3cncnc3)cc2)C1)(C(F)(F)F)C(F)(F)F` (stereo not shown) [Example 258, 1-(2-chloro-phenyl)-5-(4-pyrimidin-5-yl-phenyl)-3-[di-(trifluoromethyl)-hydroxy-methyl]-4,5-dihydro-1H-pyrazole] were, in that order, 62 fold and 302 nM.
Compound `OC(C1=NN(c2ccccc2Cl)C(c2ccc(-c3cccnc3F)cc2)C1)(C(F)(F)F)C(F)(F)F` (stereo not shown) [Example 261, 1-(2-chloro-phenyl)-5-[4-(2-fluoro-pyridin-3-yl)-phenyl]-3-[di-(trifluoromethyl)-hydroxy-methyl]-4,5-dihydro-1H-pyrazole] registered an Emax of 54 fold and an EC50 of 699 nM.
Regarding `OC(C1=NN(c2ccc(F)cc2F)C(c2ccc(-c3ccc(C(F)(F)F)nc3)cc2)C1)(C(F)(F)F)C(F)(F)F` (stereo not shown) [Example 377, 1-(2,4-difluoro-phenyl)-5-[4-(6-trifluoromethyl-pyridin-3-yl)-phenyl]-3-[di-(trifluoromethyl)-hydroxy-methyl]-4,5-dihydro-1H-pyrazole], the Emax is listed as 15 fold and the EC50 turned out to be 890 nM.
The like results for `Fc1ccc(N2N=C(C(F)(F)C(F)(F)F)CC2c2cccc(-c3ccc(C(F)(F)F)nc3)c2)c(F)c1` (stereo not shown) [Example 72, 1-(2,4-difluoro-phenyl)-3-pentafluoroethyl-5-(3-(2-trifluoromethyl-pyridin-5-yl)-phenyl)-4,5-dihydro-1H-pyrazole] were, in that order, 9 fold and 15200 nM.
In turn, `CSc1ccc(-c2ccc(C3CC(C(O)(C(F)(F)F)C(F)(F)F)=NN3c3ccccc3Cl)cc2)cc1` (stereo not shown) [Example 243, 1-(2-chloro-phenyl)-5-[4′-(methylsulfanyl)-biphenyl-4-yl]-3-[di-(trifluoromethyl)-hydroxy-methyl]-4,5-dihydro-1H-pyrazole] had an Emax of 112 fold and an EC50 of 617 nM.
In turn, `CS(=O)(=O)c1ccc(-c2ccc(C3CC(C(O)(C(F)(F)F)C(F)(F)F)=NN3c3ccc(F)cc3F)cc2)nc1` (stereo not shown) [Example 391, 1-(2,4-difluoro-phenyl)-5-[4-(5-methanesulfonyl-pyridin-2-yl)-phenyl]-3-[di-(trifluoromethyl)-hydroxy-methyl]-4,5-dihydro-1H-pyrazole] showed an Emax of 26 fold and a concentration giving a half-maximal response (EC50) of 173 nM.
Turning to `OC(C1=NN(c2ccc(F)cc2F)C(c2ccc(-c3cncc(F)c3)cc2)C1)(C(F)(F)F)C(F)(F)F` (stereo not shown) [Example 381, 1-(2,4-difluoro-phenyl)-5-[4-(5-fluoro-pyridin-3-yl)-phenyl)-3-[di-(trifluoromethyl)-hydroxy-methyl]-4,5-dihydro-1H-pyrazole], the Emax turned out to be 50 fold and the EC50 was determined as 448 nM.
The like results for `O=C(O)C(F)(F)F.OC(C1=NN(c2ccccc2Cl)C(c2cccc(C3=CCNCC3)c2)C1)(C(F)(F)F)C(F)(F)F` (stereo not shown) [Example 230, 1-(2-chloro-phenyl)-5-[3-(1,2,3,6-tetrahydropyridin-4-yl)-phenyl]-3-[di-(trifluoromethyl)-hydroxy-methyl]-4,5-dihydro-1H-pyrazole trifluoroacetate] were, in that order, 137 fold and 36 nM.
`CSc1ccc(-c2cccc(C3CC(C(F)(F)C(F)(F)F)=NN3c3ccc(Cl)cc3F)c2)cc1` (stereo not shown) [Example 31, 1-(4-chloro-2-fluoro-phenyl)-5-(4′-methylsulfanyl-biphenyl-3-yl)-3-pentafluoroethyl-4,5-dihydro-1H-pyrazole] displayed an Emax of 28 fold and an EC50 of 5660 nM.
The like results for `CC(C)S(=O)(=O)N1CC=C(c2ccc(C3CC(C(O)(C(F)(F)F)C(F)(F)F)=NN3c3ccccc3Cl)cc2)CC1` (stereo not shown) [Example 301, 1-(2-chloro-phenyl)-5-{4-[1-(propane-2-sulfonyl)-1,2,3,6-tetrahydropyridin-4-yl]-phenyl}-3-[di-(trifluoromethyl)-hydroxy-methyl]-4,5-dihydro-1H-pyrazole] were, in that order, 73 fold and 479 nM.
The like results for `Cl.OC(C1=NN(c2ccccc2Cl)C(c2ccc(C3=CCNCC3)s2)C1)(C(F)(F)F)C(F)(F)F` (stereo not shown) [Example 417, 1-(2-chloro-phenyl)-5-[5-(1,2,3,6-tetrahydropyridin-4-yl)-thiophen-2-yl]-3-[di-(trifluoromethyl)-hydroxy-methyl]-4,5-dihydro-1H-pyrazole hydrochloride] were, in that order, 58 fold and 1030 nM.
The like results for `CS(=O)(=O)N1CC=C(c2cc(C3CC(C(F)(F)C(F)(F)F)=NN3c3ccc(F)cc3F)ccn2)CC1` (stereo not shown) [Example 191, 1-(2,4-difluoro-phenyl)-5-[2-(1-methanesulfonyl-1,2,3,6-tetrahydropyridin-4-yl)-pyridin-4-yl]-3-pentafluoroethyl-4,5-dihydro-1H-pyrazole] were, in that order, 50 fold and 6700 nM.
Take `Cc1ccc(-c2ccc(C3CC(C(O)(C(F)(F)F)C(F)(F)F)=NN3c3ccccc3Cl)cc2)c(F)c1` (stereo not shown) [Example 265, 1-(2-chloro-phenyl)-5-(2′-fluoro-4′-methyl-biphenyl-4-yl)-3-[di-(trifluoromethyl)-hydroxy-methyl]-4,5-dihydro-1H-pyrazole]: the Emax worked out at 97 fold and the EC50 was determined as 239 nM.
The like results for `Cc1ccccc1-c1ccc(C2CC(C(O)(C(F)(F)F)C(F)(F)F)=NN2c2ccccc2Cl)cc1` (stereo not shown) [Example 249, 1-(2-chloro-phenyl)-5-(2′-methyl-biphenyl-4-yl)-3-[di-(trifluoromethyl)-hydroxy-methyl]-4,5-dihydro-1H-pyrazole] were, in that order, 115 fold and 784 nM.
The like results for `CS(=O)(=O)c1ccc(-c2cccc(C3CC(C(F)(F)C(F)(F)F)=NN3c3ccc(Cl)cc3Cl)c2)cc1` (stereo not shown) [Example 41, 1-(2,4-dichloro-phenyl)-5-(4′-methanesulfonyl-biphenyl-3-yl)-3-pentafluoroethyl-4,5-dihydro-1H-pyrazole] were, in that order, 89 fold and 1660 nM.

A word on the EC50: it is the concentration giving half of the maximal effect. A higher EC50 goes with a less potent agent.
